Reference: patent publication US20260130933A1, “PHARMACEUTICAL COMPOSITION FOR PREVENTION OR TREATMENT OF NEPHROPATHY AND/OR DIABETES MELLITUS, COMPRISING ENAVOGLIFLOZIN” (DAEWOONG PHARMACEUTICAL CO., LTD., priority 2022, published 2026)

Test: Example 3: phase 3 trial, enavogliflozin 0.3 mg vs dapagliflozin 10 mg once a day for 24 weeks added to metformin and gemigliptin in patients with type 2 diabetes (same endpoints, rescue drug)
Type: in vivo, human
Details: for Subjects achieving therapeutic glycemic response 1, %: response 1 = HbA1c change >0.5% or HbA1c <7%; for Subjects achieving therapeutic glycemic response 2, %: response 2 = HbA1c change >0.7% or HbA1c <7%; for Subjects achieving therapeutic glycemic response 3, %: response 3 = HbA1c change >1% or HbA1c <7%
Description: 1) when Metformin (≥1,000 mg/Day) was Administered at a Constant Dose for at Least 8 Weeks Prior to Pre-Visit (Pre-Screening) • Metformin (≥1,000 mg/day) and gemigliptin (50 mg/day) were co-administered during the 8-week stabilization period. […] 4) when Metformin (≥1,000 mg/Day) and Gemigliptin (50 mg/Day) were Co-Administered at Constant Doses for at Least 8 Weeks Prior to Pre-Visit (Prescreening) • Without a separate stabilization period, Pre-visit (pre-screening) was Visit 1 (screening).
Subjects who met the inclusion/exclusion criteria continued to receive metformin and gemigliptin while receiving a placebo of the clinical trial drug in a single-blind (subject-blinded) state for a 2-week run-in period.
Here, the randomized subjects were stratified according to the administration therapy (co-administration with two or less agents (one or two agents) or three or more agents) of a conventional hypoglycemic agent (before washout of another hypoglycemic agent) within 24 weeks prior to obtaining written informed consent and by an HbA1c value (<8% or ≥8%) at Visit 1 (screening) measured in the central laboratory.
The randomized subjects were administered two tablets of the clinical trial drug corresponding to each administration group once a day, and then visited the institution at weeks 6, 12, 18, and 24 during the 24-week administration period to conduct efficacy and safety assessments. In addition, during the clinical trial period, they were instructed to exercise regularly and control their diet without changing their daily life patterns.
• 1) Change in HbA1c at week 24 after administration of clinical trial drug compared to Visit 2 (randomization)
• 1) Change in HbA1c at each time point of weeks 6, 12, and 18 after administration of clinical trial drug compared to Visit 2 (randomization) • 2) Change in FPG at each time point of weeks 6, 12, 18, and 24 after administration of clinical trial drug compared to Visit 2 (randomization) • 3) Proportion of subjects achieving HbA1c<7% at each time point of weeks 6, 12, 18, and 24 after administration of clinical trial drug • 4) Proportion of subjects achieving HbA1c<6.5% at each time point of weeks 6, 12, 18, and 24 after administration of clinical trial drug • 5) Proportion of subjects achieving therapeutic response (HbA1c change (HbA1c at Visit 2—HbA1c at each evaluation time point)>0.5% or HbA1c<7% at each evaluation time point compared to Visit 2 (randomization)) at each time point of weeks 6, 12, 18, and 24 after administration of clinical trial drug • 6) Proportion of subjects achieving therapeutic response (HbA1c change (HbA1c at Visit 2—HbA1c at each evaluation time point)>0.7% or HbA1c<7% at each evaluation time point compared to Visit 2 (randomization)) at each time point of weeks 6, 12, 18, and 24 after administration of clinical trial drug • 7) Proportion of subjects achieving therapeutic response (HbA1c change (HbA1c at Visit 2—HbA1c at each evaluation time point)>1% or HbA1c<7% at each evaluation time point compared to Visit 2 (randomization)) at each time point of weeks 6, 12, 18, and 24 after administration of clinical trial drug

[1] = week 18, per-protocol set, enavogliflozin 0.3 mg, dapagliflozin 10 mg
[2] = week 24, modified per-protocol set 1, enavogliflozin 0.3 mg, dapagliflozin 10 mg
[3] = week 24, modified per-protocol set 2
[4] = week 24, modified per-protocol set 2, enavogliflozin 0.3 mg, dapagliflozin 10 mg
[5] = week 24, per-protocol set, enavogliflozin 0.3 mg, dapagliflozin 10 mg

## CCOc1ccc(Cc2cc([C@@H]3O[C@H](CO)[C@@H](O)[C@H](O)[C@H]3O)ccc2Cl)cc1 [Dapagliflozin, reference compound]
[1]
  body weight, Median: 62.30 kg
  Subjects achieving therapeutic glycemic response 1, %: 82.93%
  Subjects achieving therapeutic glycemic response 2, %: 76.42%
  Subjects achieving therapeutic glycemic response 3, %: 70.73%
Week 24
  FPG change from baseline, LS mean (SE): −23.72(1.78) mg/dL
  HDL-C change from baseline, LS mean (SE): 4.40(0.69) mg/dL
  HOMA-IR change from baseline, LS mean (SE): −0.93(0.11)
  HOMA-β change from baseline, LS mean (SE): 5.78(4.72)
  HbA1c change from baseline, LS mean (SE): −0.86(0.05) % p
  HbA1c change from baseline, Mean (SD): −0.89(0.65) % p
  LDL-C change from baseline, LS mean (SE): 3.12(1.85) mg/dL
  UACR change from baseline, LS mean (SE): −16.13 (3.84) g/kg
  UGCR change from baseline, LS mean (SE): 43.51(2.26) mg/mg
  adiponectin change from baseline, LS mean (SE): 0.92(0.35) μg/mL
  body weight change from baseline, LS mean (SE): −3.01(0.22) kg
  diastolic blood pressure change from baseline, LS mean (SE): −1.89(0.70) mmHg
  fasting C-peptide change from baseline, LS mean (SE): −0.08(0.02) ng/ml
  leptin change from baseline, LS mean (SE): −0.57(0.51) ng/mL
  systolic blood pressure change from baseline, LS mean (SE): −4.27(0.93) mmHg
  total cholesterol change from baseline, LS mean (SE): 5.57(2.03) mg/dL
  triglyceride change from baseline, LS mean (SE): −8.78(3.94) mg/dL
Week 24, FAS
  Proportion of subjects who received a rescue drug: 0.74%
[2]
  Change from baseline in HDL-C, ANCOVA LS mean: 4.40 mg/dL
  Change from baseline in HDL-C, Mean: 4.44 mg/dL
  Change from baseline in HDL-C, Median: 4.00 mg/dL
  Change from baseline in LDL-C, ANCOVA LS mean: 3.12 mg/dL
  Change from baseline in LDL-C, Mean: 2.72 mg/dL
  Change from baseline in LDL-C, Median: 1.50 mg/dL
  Change from baseline in total cholesterol, ANCOVA LS mean: 5.57 mg/dL
  Change from baseline in total cholesterol, Mean: 4.69 mg/dL
  Change from baseline in total cholesterol, Median: 3.00 mg/dL
  Change from baseline in triglycerides, ANCOVA LS mean: -8.78 mg/dL
  Change from baseline in triglycerides, Mean: -13.81 mg/dL
  Change from baseline in triglycerides, Median: -6.00 mg/dL
  Fasting HDL-C, Mean: 51.87 mg/dL
  Fasting HDL-C, Median: 50.50 mg/dL
  Fasting LDL-C, Mean: 80.13 mg/dL
  Fasting LDL-C, Median: 71.50 mg/dL
  Fasting total cholesterol, Mean: 148.49 mg/dL
  Fasting triglycerides, Mean: 118.68 mg/dL
  Fasting triglycerides, Median: 104.00 mg/dL
  fasting Total cholesterol, Median: 145.00 mg/dL
[3]
  Change from baseline in diastolic blood pressure, ANCOVA LS mean: −1.89 mmHg
  Change from baseline in diastolic blood pressure, Mean: −1.60 mmHg
  Change from baseline in diastolic blood pressure, Median: −2.00 mmHg
  Diastolic blood pressure, Mean: 72.27 mmHg
  Diastolic blood pressure, Median: 73.00 mmHg
[4]
  Change from baseline in systolic blood pressure, ANCOVA LS mean: −4.27 mmHg
  Change from baseline in systolic blood pressure, Mean: −3.74 mmHg
  Change from baseline in systolic blood pressure, Median: −4.00 mmHg
  Systolic blood pressure, Mean: 120.20 mmHg
  Systolic blood pressure, Median: 119.00 mmHg
Week 24, per-protocol set
  Adiponectin, Mean: 7.18 µg/mL
  Adiponectin, Median: 6.39 µg/mL
  Change from baseline in HOMA-IR, ANCOVA LS mean: −0.93
  Change from baseline in HOMA-IR, Mean: −0.88
  Change from baseline in HOMA-IR, Median: −0.70
  Change from baseline in HOMA-β, ANCOVA LS mean: 5.78
  Change from baseline in HOMA-β, Mean: 7.95
  Change from baseline in HOMA-β, Median: 7.20
  Change from baseline in UACR, ANCOVA LS mean: -16.13 g/kg
  Change from baseline in UACR, Mean: -11.12 g/kg
  Change from baseline in UACR, Median: -0.70 g/kg
  Change from baseline in UGCR, ANCOVA LS mean: 43.51 mg/mg
  Change from baseline in UGCR, Mean: 42.31 mg/mg
  Change from baseline in UGCR, Median: 42.35 mg/mg
  Change from baseline in adiponectin, ANCOVA LS mean: 0.92 µg/mL
  Change from baseline in adiponectin, Mean: 0.84 µg/mL
  Change from baseline in adiponectin, Median: 0.78 µg/mL
  Change from baseline in leptin, ANCOVA LS mean: -0.57 ng/mL
  Change from baseline in leptin, Mean: -0.74 ng/mL
  Change from baseline in leptin, Median: -0.46 ng/mL
  HOMA-IR (insulin resistance), Mean: 1.97
  HOMA-IR (insulin resistance), Median: 1.55
  HOMA-β (beta-cell function), Mean: 48.41
  HOMA-β (beta-cell function), Median: 36.70
  Leptin, Mean: 10.10 ng/mL
  Leptin, Median: 8.14 ng/mL
  UACR, Mean: 23.58 g/kg
  UACR, Median: 10.20 g/kg
  UGCR, Mean: 43.84 mg/mg
  UGCR, Median: 42.85 mg/mg
[5]
  Body weight, Mean: 64.38 kg
  Change from baseline in FPG, ANCOVA LS mean: -23.72 mg/dL
  Change from baseline in FPG, Mean: -23.70 mg/dL
  Change from baseline in FPG, Median: -20.00 mg/dL
  Change from baseline in body weight, ANCOVA LS mean: -3.01 kg
  Change from baseline in body weight, Mean: -2.83 kg
  Change from baseline in body weight, Median: -2.60 kg
  Change from baseline in fasting C-peptide, ANCOVA LS mean: -0.08 ng/mL
  Change from baseline in fasting C-peptide, Mean: -0.07 ng/mL
  Change from baseline in fasting C-peptide, Median: -0.10 ng/mL
  FPG, Mean: 116.82 mg/dL
  FPG, Median: 114.00 mg/dL
  Fasting C-peptide, Mean: 0.62 ng/mL
  Fasting C-peptide, Median: 0.56 ng/mL
  Subjects achieving HbA1c target of <6.5%, (%): 17.07%
  Subjects achieving HbA1c target of <7%, %: 62.60%
  body weight, Median: 62.90 kg
  Subjects achieving therapeutic glycemic response 1, %: 85.37%
  Subjects achieving therapeutic glycemic response 2, %: 82.11%
  Subjects achieving therapeutic glycemic response 3, %: 74.80%
